The values below come from patent US11320438B2, “Isotopic methods for measurement of tryptophan and metabolites thereof” (ELECTROPHORETICS LIMITED, priority 2015, dated 2022).

One data set relates to HEK control cells (WT). The experiment in a line: Degradation in supernatants of HEK control cells (WT). The class given is in vitro ADME, human. To be noted: data not shown. As to the method: SKOV-3 ovarian carcinoma cells were cultured in McCoy's 5A Medium (BioConcept, Allschwil, Switzerland) supplemented with L-Tryptophan as indicated (Sigma-Aldrich, Taufkirchen, Germany), 300 mg/l Glutamine (Carl Roth, Karlsruhe, Germany), 10% FBS (Thermo Fisher Scientific Inc., Waltham, Mass., USA) and 100 U/mL penicillin and 100 μg/mL streptomycin (PAA Laboratories, Pasching, Austria). Human embryonic kidney (HEK) cells were cultured in DMEM (PAA Laboratories), 10% FBS (Thermo Scientific) and 100 U/mL penicillin and 100 μg/mL streptomycin (PAA Laboratories). Peripheral blood mononuclear cells (PBMC) were isolated from healthy, non-related blood-donors by density-gradient centrifugation using lymphocyte separation medium LSA 1077 (PAA Laboratories) and cultured in RPMI 1640 (PAA Laboratories) containing 10% FBS (Thermo Fisher Scientific Inc) and 100 U/mL penicillin and 100 μg/mL streptomycin (PAA Laboratories). […]
Samples were either measured on a QTof II (Waters) mass spectrometer coupled to an UPLC nanoLC (Waters) on an LTQ Orbitrap Velos Pro (Thermo Scientific) coupled to a Proxeon nanoLC-II (Thermo Scientific) or a triple quadrupole system coupled to nanoLC-II (EASY-nLC II TSQ Vantage system). […]

The target of another data set is T1, TDO (Homo sapiens, UniProt P48775).
T1 construct: expressed in transfected cells; host or cells: HEK293 cells, neomycin-selected
T1 sequence (P48775 whole entry): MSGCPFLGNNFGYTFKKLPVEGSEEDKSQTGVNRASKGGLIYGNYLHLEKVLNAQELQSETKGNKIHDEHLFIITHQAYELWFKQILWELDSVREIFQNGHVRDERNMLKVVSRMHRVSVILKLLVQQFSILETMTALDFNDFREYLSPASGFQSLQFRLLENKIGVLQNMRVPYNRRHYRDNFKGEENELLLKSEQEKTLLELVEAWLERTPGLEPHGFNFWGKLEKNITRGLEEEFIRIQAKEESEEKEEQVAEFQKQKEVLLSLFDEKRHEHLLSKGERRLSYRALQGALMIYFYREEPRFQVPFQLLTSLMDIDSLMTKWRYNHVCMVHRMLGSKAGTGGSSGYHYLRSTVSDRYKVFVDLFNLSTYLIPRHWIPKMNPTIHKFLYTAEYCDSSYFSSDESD
The experiment in a line: Degradation in supernatants of HEK cells expressing TDO. The settings on record: day 0 vs day 6. The data set is classed as in vitro ADME. As to the method: SKOV-3 ovarian carcinoma cells were cultured in McCoy's 5A Medium (BioConcept, Allschwil, Switzerland) supplemented with L-Tryptophan as indicated (Sigma-Aldrich, Taufkirchen, Germany), 300 mg/l Glutamine (Carl Roth, Karlsruhe, Germany), 10% FBS (Thermo Fisher Scientific Inc., Waltham, Mass., USA) and 100 U/mL penicillin and 100 μg/mL streptomycin (PAA Laboratories, Pasching, Austria). Human embryonic kidney (HEK) cells were cultured in DMEM (PAA Laboratories), 10% FBS (Thermo Scientific) and 100 U/mL penicillin and 100 μg/mL streptomycin (PAA Laboratories). […] All cells were routinely tested for contamination by the Multiplex cell Contamination Test (44). Cultures were incubated at 37° C. in a 5% CO2 atmosphere.
The full length cDNA sequence of IDO1 and TDO was cloned via Gateway® cloning into pDEST-Flag-C, a Gateway® compatible overexpression vector containing a single C-terminal FLAG-tag, resulting in pDEST-TDO-FLAG-C and pDEST-IDO1-FLAG-C.
Basis for the pDEST-FLAG-C was the pDEST26 vector (Invitrogen). The 6×His-tag of pDEST26 was removed with site-directed mutagenesis PCR, resulting in pDEST. The single C-terminal Flag-tag was introduced into pDEST, by site-directed mutagenesis PCR, resulting in Flag-C. […] Cells were selected using 1.5 mg/ml neomycin (Sigma-Aldrich).
(§1) 50 μL of each single cell culture supernatant was labelled with TMT® sixplex reagents (Thermo Fisher Scientific).
(§2) Samples were either measured on a QTof II (Waters) mass spectrometer coupled to an UPLC nanoLC (Waters) on an LTQ Orbitrap Velos Pro (Thermo Scientific) coupled to a Proxeon nanoLC-II (Thermo Scientific) or a triple quadrupole system coupled to nanoLC-II (EASY-nLC II TSQ Vantage system). The samples were resolved in 150 μl 2% ACN, 0.1% formic acid (1 μL sample=1 μL mixed supernatant equivalent).

In another data set the test system is SKOV-3 cells. The experiment in a line: Degradation of tryptophan and 1-MT in SKOV-3 cell culture supernatants (TMT sixplex LC-MS/MS). The data set is classed as in vitro ADME, human. To be noted: for depletion of the substance from the media: after 6 days of incubation; for degradation to methyl-kynurenine: days 0-6, 1000 μM 1-MT with 70 μM tryptophan, or 200 μM 1-MT with no added tryptophan. As to the method: (§3) SKOV-3 ovarian carcinoma cells were cultured in McCoy's 5A Medium (BioConcept, Allschwil, Switzerland) supplemented with L-Tryptophan as indicated (Sigma-Aldrich, Taufkirchen, Germany), 300 mg/l Glutamine (Carl Roth, Karlsruhe, Germany), 10% FBS (Thermo Fisher Scientific Inc., Waltham, Mass., USA) and 100 U/mL penicillin and 100 μg/mL streptomycin (PAA Laboratories, Pasching, Austria). Human embryonic kidney (HEK) cells were cultured in DMEM (PAA Laboratories), 10% FBS (Thermo Scientific) and 100 U/mL penicillin and 100 μg/mL streptomycin (PAA Laboratories). Peripheral blood mononuclear cells (PBMC) were isolated from healthy, non-related blood-donors by density-gradient centrifugation using lymphocyte separation medium LSA 1077 (PAA Laboratories) and cultured in RPMI 1640 (PAA Laboratories) containing 10% FBS (Thermo Fisher Scientific Inc) and 100 U/mL penicillin and 100 μg/mL streptomycin (PAA Laboratories). For the generation of dendritic cells (DC), CD14+ cells were separated using the magnetic activated cell sorting (MACS) technology (Miltenyi Biotec, Bergisch Gladbach, Germany) and plated in RPMI 1640 (Cambrex, Verviers, Belgium) containing 10% FBS, 200 IU/mL interleukin-4 and 1000 IU/mL GM-CSF (Immunotools, Friesoythe, Germany) for 7 days. All cells were routinely tested for contamination by the Multiplex cell Contamination Test (44). Cultures were incubated at 37° C. in a 5% CO2 atmosphere. 20 mM stock solutions (of 1-methyl-D-tryptophan (1-D-MT, lot numbers: 09315BH, 08007EJ) and 1-methyl-L-tryptophan (1-L-MT, lot numbers: 08023HE, 15399MJ) (Sigma-Aldrich) were prepared by dissolving the inhibitors in 0.1 N NaOH. The pH was adjusted to 7.5 using hydrochloric acid. To avoid contamination of the cell cultures, the stock solutions were filtered through 0.2 μm filters. Interferon-gamma (IFN-g) was purchased from Immunotools (Friesoythe, Germany).
as §1
The dry TMT® sixplex mixtures were reconstituted in 300 μL of water:acetonitrile 95:5 with 0.1% trifluoroacetic acid (buffer A). 150 μL were fractionated by reversed phase chromatography (Nucleosil 120-5 C18 column, 250 mm×4.6 mm, Macherey Nagel) using a Waters 2695 HPLC with UV detection at 214 nm. After loading, the sample was washed 4 min with buffer A. Then, the substances were eluted by increasing the acetonitrile content within 40 min to 55%. The flow rate was kept at 1.5 mL/min over the entire gradient. The fraction from 18-30 minutes was collected and dried.
as §2
The SIM m/z range was from 350-500 Th with a resolution of 60000 and an AGC setting of 5e4 with a maximum scan time of 500 ms. MS/MS was acquired as TOP10 in HCD mode with a resolution of 7500 and an AGC setting of 5e4 with a maximum scan time of 500 ms. Isolation width was 1.5 amu and normalized collision energy was 60. The default charge state of the precursor was set to z=1. All other charge states were rejected. Analytes of interest were acquired in MSMS mode using an inclusion list only mode (±50 ppm) and all other analytes not included in the list were discarded.

The test system of the next data set is human dendritic cells. The experiment in a line: 1-MT degradation in interferon-gamma stimulated human dendritic cells. The data set is classed as in vitro ADME. The settings on record: IFN gamma, after 6 days of incubation. As to the method:
as §3, §1, §2
Immune cells can also express tryptophan-degrading enzymes and tryptophan degradation is known to exert potent immunosuppressive effects (9). To assess whether also immune cells, such as dendritic cells, degrade 1-MT to methyl-kynurenine, three independent biological samples of supernatants of human dendritic cells from two different donors were analysed (only donor 1 shown). […]

Data set [1] is described as follows: Serum analysis of LPS-stimulated mice injected with 1-L-MT. The settings on record: 1 mg/mouse 1-L-MT i.p.
Method: Animal work was supervised by institutional animal protection officials in accordance with the National Institute of Health guidelines Guide for the Care and Use of Laboratory Animals. C57BL/6N mice were purchased from Charles River (Sulzfeld, Germany). […] The blood was centrifuged to obtain serum, which was finally prepared for LC-MS/MS measurements.
50 μL of serum sample was precipitated with 50 μL TCA-solution (60 g/l) at 4° C. overnight. The suspension was centrifuged for 15 minutes at 4° C. at 6000 g. The pellet was discarded and the supernatant used for further experiments after neutralization with 1 M NaOH to pH 7-8.
66 μL of each precipitated and neutralized mouse serum sample were diluted with 6 μL of 1M triethylammonium bicarbonate (TEAB, Sigma-Aldrich) and then 24 μL of a 60 mM TMT reagent stock solution in ACN (LichroSolv, VWR) were added. The reaction was incubated for 1 hour at room temperature and finally quenched by adding 12 μL of 2.5% aqueous hydroxylamine solution (Sigma-Aldrich). The respective six labelled serum samples to be compared were mixed and dried.
For the Orbitrap MS runs the mixed mouse serum sample was dissolved in 2% ACN, 0.1% formic acid and ˜0.88 μL of mixed serum equivalent was loaded on column.
Data set [2] concerns the target T2, aryl hydrocarbon receptor (Homo sapiens, UniProt P35869).
T2 construct: Treatment of SKOV-3 cells with 1-D/L-MT under tryptophan-free conditions induced the AHR target genes CYP1A1 and TIPARP; endogenous in cells; host or cells: SKOV-3 ovarian carcinoma cells
T2 sequence (P35869 11-848): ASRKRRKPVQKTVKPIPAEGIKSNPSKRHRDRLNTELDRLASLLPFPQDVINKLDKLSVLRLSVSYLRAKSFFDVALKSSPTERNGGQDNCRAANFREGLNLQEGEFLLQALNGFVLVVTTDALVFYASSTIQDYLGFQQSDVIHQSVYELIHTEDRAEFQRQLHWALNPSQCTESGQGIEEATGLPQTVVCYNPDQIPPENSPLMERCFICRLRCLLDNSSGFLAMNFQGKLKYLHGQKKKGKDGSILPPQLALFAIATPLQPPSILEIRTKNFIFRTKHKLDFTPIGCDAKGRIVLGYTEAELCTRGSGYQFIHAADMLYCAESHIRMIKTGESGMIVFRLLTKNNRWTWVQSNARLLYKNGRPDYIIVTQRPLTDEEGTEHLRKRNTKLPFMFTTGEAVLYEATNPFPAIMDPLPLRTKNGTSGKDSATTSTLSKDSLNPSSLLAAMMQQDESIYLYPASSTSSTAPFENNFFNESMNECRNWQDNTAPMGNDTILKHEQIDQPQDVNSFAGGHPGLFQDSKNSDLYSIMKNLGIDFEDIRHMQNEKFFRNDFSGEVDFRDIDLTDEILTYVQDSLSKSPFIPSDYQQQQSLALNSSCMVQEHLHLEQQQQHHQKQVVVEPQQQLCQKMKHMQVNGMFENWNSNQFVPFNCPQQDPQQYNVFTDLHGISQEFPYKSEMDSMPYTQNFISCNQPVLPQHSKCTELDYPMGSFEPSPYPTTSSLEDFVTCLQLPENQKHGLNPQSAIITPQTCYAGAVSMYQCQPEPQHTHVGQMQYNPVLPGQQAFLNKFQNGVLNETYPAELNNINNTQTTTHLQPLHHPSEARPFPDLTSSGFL
The experiment in a line: qRT-PCR of AHR target genes in SKOV-3 cells. The data set is classed as cell-based. The method, then:
as §3, with “20 mM stock solutions (of 1-methyl-D-tryptophan (1-D-MT, lot numbers: 09315BH, 08007EJ) and 1-methyl-L-tryptophan (1-L-MT, lot numbers: 08023HE, 15399MJ) (Sigma-Aldrich) were prepared by dissolving the inhibitors in 0.1 N NaOH. The pH was adjusted to 7.5 using hydrochloric acid. To avoid contamination of the cell cultures, the stock solutions were filtered through 0.2 μm filters. Interferon-gamma (IFN-g) was purchased from Immunotools (Friesoythe, Germany).” left out
Total RNA was isolated with the Qiagen RNAeasy RNA isolation kit (Hilden, Germany) and cDNA was synthesized with the Applied Biosystems reverse-transcription-Kit (Foster City, USA) according to manufacturer's instructions. […] The size of the amplicons was analyzed by loading the samples and a 100 bp ladder (Invitrogen, Leek, Netherlands) on a 2% agarose gel, which was then stained with ethidium bromide and analyzed under UV light. […] Relative quantification of gene expression was determined by comparison of threshold values. […]
(In general: Quantitative PCR measures a nucleic acid by following its amplification.)

The mark [3] stands for this setting: SKOV-3 cells, tryptophan-free conditions, qRT-PCR.

Take `Cn1cc(C[C@H](N)C(=O)O)c2ccccc21` [1-MT, 1-methyl-tryptophan]: in the data set with HEK control cells (WT), the “degradation by HEK control cells” value is recorded as “degraded neither”. Moreover, at TDO, the “degradation / decrease of substrate in cell supernatants” value was “no decrease”.
For `N[C@@H](Cc1c[nH]c2ccccc12)C(=O)O` [tryptophan] the same measures were “degraded neither” and “degraded tryptophan to kynurenine”.
`Cn1cc(C[C@H](N)C(=O)O)c2ccccc21` [1-L-MT, 1-methyl-L-tryptophan]: in the data set with SKOV-3 cells, the “depletion of the substance from the media” value (“depletion of the substance” below) is recorded as “completely depleted” and the degradation to methyl-kynurenine entry is reported as “degraded more quickly than 1-D-MT”. On TDO, the “increase in methyl-kynurenine after treatment” value is on record as “very slight increase”. In the data set on human dendritic cells, the “methyl-kynurenine in the media” value was “increase in methyl-kynurenine” and the “reduction of substrate in the media” value was “reduction”. Further, the “serum methyl-kynurenine versus mice treated with LPS alone” value in data set [1] is “significantly higher concentrations of methyl-kynurenine”.
In the case of `Cn1cc(CC(N)C(=O)O)c2ccccc21` [1-D/L-MT], in data set [2] (setting [3]), the “induction of AHR target gene CYP1A1” value is on record as “induced” and the “induction of AHR target gene TIPARP” value is reported as “induced”.
Consider `N[C@H](Cc1c[nH]c2ccccc12)C(=O)O` [D-tryptophan], for which, in the data set on SKOV-3 cells, the “depletion of the substance” value is “not entirely depleted”.
On to `CNc1ccccc1C(=O)C[C@H](N)C(=O)O` [methyl-kynurenine, (S)—N-methyl kynurenine], for which the “activation of the AHR” value in data set [2] (inferred from treatment of SKOV-3 cells with 1-D/L-MT) was “capable of activating the AHR”.
Take `Cn1cc(C[C@@H](N)C(=O)O)c2ccccc21` [1-D-MT, 1-methyl-D-tryptophan]: the “metabolism of tryptophan to kynurenine in treated samples” value in the data set with SKOV-3 cells (D-MT compared with L-MT samples) is “more quickly and higher kynurenine levels were reached”. Moreover, the degradation to methyl-kynurenine entry with SKOV-3 cells was “degraded to methyl-kynurenine”. The “increase in methyl-kynurenine after treatment” value on TDO is listed as “not”. In the data set with human dendritic cells, the “methyl-kynurenine in the media” value is on record as “increase in methyl-kynurenine” and the “reduction of substrate in the media” value was “no clear reduction”.
As to `N[C@@H](Cc1c[nH]c2ccccc12)C(=O)O` [L-tryptophan], the “depletion of the substance” value in the data set on SKOV-3 cells is “completely depleted”.
